Data: ChEMBL document CHEMBL1201862, “PubChem BioAssay data set” (2004)
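These data come from cells grown in 96-well plates and exposed to compound for 48 hours at five concentrations. At the GI50, growth is halved.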 The source made the active and inactive calls. Cut-off read from the data, not from the text of the source: active = GI50 up to about 1.1 µM and inactive = higher.

What was measured:
Test in all cases: NCI-60 cell line screen, 48 h
[1] = test system: SF-295
[2] = test system: NCI-H522
[3] = test system: ACHN
[4] = test system: TK-10
[5] = test system: K562
[6] = test system: COLO 205
[7] = test system: MOLT-4
[8] = test system: HL-60
[9] = test system: Malme-3M
[10] = test system: SK-MEL-28
[11] = test system: SK-OV-3
[12] = test system: MDA-MB-231
[13] = test system: SF-268
[14] = test system: RPMI-8226
[15] = test system: DU-145
[16] = test system: IGROV-1
[17] = test system: UACC-62
[18] = test system: HOP-62
[19] = test system: RXF 393
[20] = test system: MCF7
[21] = test system: SN12C
[22] = test system: T47D
[23] = test system: OVCAR-3
[24] = test system: UACC-257
[25] = test system: HCC 2998
[26] = test system: HCT-116
[27] = test system: LOX IMVI
[28] = test system: OVCAR-4
[29] = test system: A498
[30] = test system: PC-3
[31] = test system: BT-549
[32] = test system: NCI/ADR-RES
[33] = test system: HT-29
[34] = test system: HOP-92
[35] = test system: CAKI-1
[36] = test system: OVCAR-5
[37] = test system: Hs-578T
[38] = test system: KM12
[39] = test system: SK-MEL-2
[40] = test system: MDA-N
[41] = test system: NCI-H23
[42] = test system: A549
[43] = test system: CCRF-CEM
[44] = test system: HCT-15
[45] = test system: SW-620
[46] = test system: OVCAR-8
[47] = test system: NCI-H460
[48] = test system: SF-539
[49] = test system: NCI-H226
[50] = test system: EKVX
[51] = test system: 786-0
[52] = test system: M14
[53] = test system: SNB-19
[54] = test system: MDA-MB-435
[55] = test system: U-251
[56] = test system: SNB-75
[57] = test system: UO-31
[58] = test system: SK-MEL-5

## COc1ccccc1OCC(=N/NC(=O)c1ccncc1)/N=C/c1ccncc1
[1]
  GI50: > 100 µM (inactive)
[2]
  GI50: > 100 µM (inactive)
[3]
  GI50: > 100 µM (inactive)
[4]
  GI50: > 100 µM (inactive)
[5]
  GI50: > 100 µM (inactive)
[6]
  GI50: > 100 µM (inactive)
[7]
  GI50: > 100 µM (inactive)
[8]
  GI50: > 100 µM (inactive)
[9]
  GI50: > 100 µM (inactive)
[10]
  GI50: > 100 µM (inactive)
[11]
  GI50: > 100 µM (inactive)
[12]
  GI50: > 100 µM (inactive)
[13]
  GI50: > 100 µM (inactive)
[14]
  GI50: > 100 µM (inactive)
[15]
  GI50: > 100 µM (inactive)
[16]
  GI50: > 100 µM (inactive)
[17]
  GI50: > 100 µM (inactive)
[18]
  GI50: > 100 µM (inactive)
[19]
  GI50: > 100 µM (inactive)
[20]
  GI50: > 100 µM (inactive)
[21]
  GI50: > 100 µM (inactive)
[22]
  GI50: > 100 µM (inactive)
[23]
  GI50: > 100 µM (inactive)
[24]
  GI50: > 100 µM (inactive)
[25]
  GI50: > 100 µM (inactive)
[26]
  GI50: > 100 µM (inactive)
[27]
  GI50: > 100 µM (inactive)
[28]
  GI50: > 100 µM (inactive)
[29]
  GI50: > 100 µM (inactive)
[30]
  GI50: > 100 µM (inactive)
[31]
  GI50: > 100 µM (inactive)
[32]
  GI50: > 100 µM (inactive)
[33]
  GI50: > 100 µM (inactive)
[34]
  GI50: 44 µM (inactive)
[35]
  GI50: > 100 µM (inactive)
[36]
  GI50: > 100 µM (inactive)
[37]
  GI50: > 100 µM (inactive)
[38]
  GI50: > 100 µM (inactive)
[39]
  GI50: > 100 µM (inactive)
[40]
  GI50: > 100 µM (inactive)
[41]
  GI50: > 100 µM (inactive)
[42]
  GI50: > 100 µM (inactive)
[43]
  GI50: > 100 µM (inactive)
[44]
  GI50: > 100 µM
[45]
  GI50: > 100 µM (inactive)
[46]
  GI50: > 100 µM (inactive)
[47]
  GI50: > 100 µM (inactive)
[48]
  GI50: > 100 µM (inactive)
[49]
  GI50: > 100 µM (inactive)
[50]
  GI50: > 100 µM (inactive)
[51]
  GI50: > 100 µM (inactive)
[52]
  GI50: > 100 µM (inactive)
[53]
  GI50: > 100 µM (inactive)
[54]
  GI50: > 100 µM (inactive)
[55]
  GI50: > 100 µM (inactive)

## C=CC(CBr)CCC(Br)C(C)(C)Br (stereo unspecified)
[1]
  GI50: > 10 µM (inactive)
[2]
  GI50: > 10 µM (inactive)
[3]
  GI50: > 10 µM (inactive)
[4]
  GI50: > 10 µM (inactive)
[5]
  GI50: > 10 µM (inactive)
[6]
  GI50: > 10 µM (inactive)
[7]
  GI50: > 10 µM (inactive)
[9]
  GI50: > 10 µM (inactive)
[56]
  GI50: > 10 µM (inactive)
[10]
  GI50: > 10 µM (inactive)
[11]
  GI50: > 10 µM (inactive)
[12]
  GI50: > 10 µM (inactive)
[13]
  GI50: > 10 µM (inactive)
[14]
  GI50: > 10 µM (inactive)
[15]
  GI50: > 10 µM (inactive)
[16]
  GI50: > 10 µM (inactive)
[18]
  GI50: > 10 µM (inactive)
[19]
  GI50: > 10 µM (inactive)
[20]
  GI50: > 10 µM (inactive)
[21]
  GI50: > 10 µM (inactive)
[22]
  GI50: > 10 µM (inactive)
[23]
  GI50: > 10 µM (inactive)
[24]
  GI50: > 10 µM (inactive)
[25]
  GI50: > 10 µM (inactive)
[26]
  GI50: > 10 µM (inactive)
[28]
  GI50: > 10 µM (inactive)
[57]
  GI50: > 10 µM (inactive)
[29]
  GI50: > 10 µM (inactive)
[30]
  GI50: > 10 µM (inactive)
[31]
  GI50: > 10 µM (inactive)
[32]
  GI50: > 10 µM (inactive)
[33]
  GI50: > 10 µM (inactive)
[34]
  GI50: > 10 µM (inactive)
[35]
  GI50: > 10 µM (inactive)
[36]
  GI50: > 10 µM (inactive)
[37]
  GI50: > 10 µM (inactive)
[38]
  GI50: > 10 µM (inactive)
[39]
  GI50: > 10 µM (inactive)
[40]
  GI50: > 10 µM (inactive)
[41]
  GI50: > 10 µM (inactive)
[42]
  GI50: > 10 µM (inactive)
[43]
  GI50: > 10 µM (inactive)
[44]
  GI50: > 10 µM
[45]
  GI50: > 10 µM (inactive)
[46]
  GI50: > 10 µM (inactive)
[47]
  GI50: > 10 µM (inactive)
[48]
  GI50: > 10 µM (inactive)
[49]
  GI50: > 10 µM (inactive)
[50]
  GI50: > 10 µM (inactive)
[51]
  GI50: > 10 µM (inactive)
[52]
  GI50: > 10 µM (inactive)
[53]
  GI50: > 10 µM (inactive)
[54]
  GI50: > 10 µM (inactive)
[55]
  GI50: > 10 µM (inactive)
[58]
  GI50: > 10 µM (inactive)

## CCOC(=O)C1CCCCN1C(=O)Cc1c[nH]c2ccccc12 (stereo unspecified)
[1]
  GI50: 66.2 µM (inactive)
[2]
  GI50: 31.4 µM (inactive)
[3]
  GI50: 71.4 µM (inactive)
[4]
  GI50: > 100 µM (inactive)
[5]
  GI50: 68.9 µM (inactive)
[6]
  GI50: 66.2 µM (inactive)
[7]
  GI50: 27.4 µM (inactive)
[8]
  GI50: 31.3 µM (inactive)
[9]
  GI50: 57.4 µM (inactive)
[56]
  GI50: 40 µM (inactive)
[10]
  GI50: > 100 µM (inactive)
[11]
  GI50: > 100 µM (inactive)
[12]
  GI50: 79.6 µM (inactive)
[13]
  GI50: 45.2 µM (inactive)
[14]
  GI50: 20 µM (inactive)
[15]
  GI50: 84.1 µM (inactive)
[16]
  GI50: 57.7 µM (inactive)
[17]
  GI50: 45.4 µM (inactive)
[18]
  GI50: 87.9 µM (inactive)
[19]
  GI50: 76.9 µM (inactive)
[20]
  GI50: 37.5 µM (inactive)
[21]
  GI50: > 100 µM (inactive)
[22]
  GI50: 37 µM (inactive)
[23]
  GI50: 52.6 µM (inactive)
[24]
  GI50: 79.3 µM (inactive)
[25]
  GI50: 77.8 µM (inactive)
[26]
  GI50: > 100 µM (inactive)
[27]
  GI50: 59.4 µM (inactive)
[28]
  GI50: 33.9 µM (inactive)
[29]
  GI50: 33.9 µM (inactive)
[30]
  GI50: 31.7 µM (inactive)
[31]
  GI50: 94.8 µM (inactive)
[32]
  GI50: 69.7 µM (inactive)
[33]
  GI50: 72.9 µM (inactive)
[34]
  GI50: 16 µM (inactive)
[35]
  GI50: 69.7 µM (inactive)
[36]
  GI50: > 100 µM (inactive)
[37]
  GI50: 24.8 µM (inactive)
[38]
  GI50: 41.3 µM (inactive)
[39]
  GI50: 61.9 µM (inactive)
[40]
  GI50: 49.8 µM (inactive)
[41]
  GI50: 80.2 µM (inactive)
[42]
  GI50: 55.2 µM (inactive)
[43]
  GI50: 42.5 µM (inactive)
[44]
  GI50: 87.7 µM
[45]
  GI50: 94.8 µM (inactive)
[46]
  GI50: 42.4 µM (inactive)
[47]
  GI50: > 100 µM (inactive)
[48]
  GI50: > 100 µM (inactive)
[49]
  GI50: > 100 µM (inactive)
[50]
  GI50: 59.2 µM (inactive)
[51]
  GI50: > 100 µM (inactive)
[52]
  GI50: 63.4 µM (inactive)
[53]
  GI50: > 100 µM (inactive)
[54]
  GI50: 34.4 µM (inactive)
[55]
  GI50: 67.3 µM (inactive)
